Patent US9738697B2 (Wisconsin Alumni Research Foundation, priority 2013, dated 2017)
Entries after “also recorded” stand apart in the source; their conditions may differ. Values belong to the compound of their own block, whether it stands above or below them.

How the values were obtained:
neprilysin = target: T1, neprilysin (Homo sapiens, UniProt P08473); assay: Protease assay with neprilysin (HPLC); type: in vitro ADME; details: 40 μg/mL neprilysin
T1 construct: purchased Reprokine; Ltd. RKP08473

C57BL/6J mice = assay: Glucose tolerance test (GTT) in mice; type: in vivo, mouse
Protocol: ID. NO: 7 was administered to mice by interperitoneal (i.p.) injection at a 1 mg/kg dose, or lower for SEQ. ID. NO: 7, using an injection volume of 10 mL/kg body mass. Each peptide was first dissolved in prefiltered DMSO at 10 mg/mL concentration, then diluted >20-fold with TBS buffer, pH 7.4 (final DMSO conc.=<5%). Glucose was administered by i.p. injection with a sterile-filtered 30% D-glucose-saline solution at a 1.5 g/kg dose using a 5 mL/kg injection volume.
Thirteen-week-old male C57BL/6J mice (The Jackson Laboratory) (n=4) were fasted overnight on wood chip bedding for 15 hours prior to the experiment. Blood glucose levels were monitored from a tail tip bleed using an ACCU-CHEK®-brand blood glucose meter (Roche Diagnostics, Indianapolis, Ind.). Fasting glucose levels were measured at 75 minutes prior to the glucose injection (t=−75 min), and the compound injection was performed 60 minutes prior to the glucose injection (t=−60 min). Glucose levels were measured immediately prior to the glucose injection (t=0 min) to assess any changes in the baseline glucose caused by peptide administration. Blood glucose levels were monitored at 30, 60, 90, and 120 minutes after injection of glucose.
Five hours after peptide injection, the mice received a second injection of 1.5 g/kg glucose. Blood glucose was monitored at 30 min after this second glucose injection. Mice were sacrificed by CO2 inhalation at the conclusion of the GTT.

chymotrypsin [1] = system: T2, chymotrypsin; assay: Protease assay with chymotrypsin (HPLC); type: in vitro ADME; details: chymotrypsin (50 μg/mL) in TBS; 50 μg/mL chymotrypsin, TBS pH 8.0, room temperature, 60 seconds; read-out: peptide remaining after 60 seconds of digestion
T2 construct: purchased Promega V1062
Protocol: (§1) An HPLC method from the literature was used to assess protease action on selected compounds.^29,31 Two nmol of solid peptide was dissolved in 40 μL of TBS pH 8.0 (resulting concentration of peptide=40 μM) before protease was added. Chymotrypsin was purchased from Promega (Fitchburg, Wis.; catalog #V1062), and neprilysin was purchased from Reprokine. Ltd. (Valley Cottage, N.Y.; catalog #RKP08473); stock solutions of 250 μg/mL chymotrypsin and 200 μg/mL neprilysin in water were prepared. A 10 μL aliquot of protease stock solution was added to 40 μL of 40 μM peptide solution to begin the reaction. Periodically, a 10 μL aliquot of the solution was removed, and protease action was halted by adding this aliquot to 100 μL of 1% aqueous TFA solution. A portion (100 μL) of the quenched solution was injected onto an HPLC column using the conditions described under “Peptide Synthesis”, and peaks were analyzed using MALDI-TOF MS. The time course of peptide degradation was experimentally determined by integrating the area of each peak in a series of HPLC traces. The area percent of parent peptide (relative to the initial trace) was calculated for each trace and plotted in GraphPad Prism as an exponential decay to determine half-life values.
(§2) ID. […] Major backbone cut sites are indicated with double front slashes. […] Digestion occurs at three major cleavage sites. […] ID. NO: 7 with 50 μg/mL chymotrypsin in TBS pH 8.0 at room temperature. […] ID. NO: 9 with 50 μg/mL chymotrypsin in TBS pH 8.0 at room temperature. This peptide has seven substitutions, α→Aib.

chymotrypsin [2] = target: T3, chymotrypsin (Bos taurus, UniProt P00766); assay: Protease assay with chymotrypsin (HPLC); type: in vitro ADME; details: 50 μg/mL chymotrypsin
T3 construct: purchased Promega V1062
Protocol: as §1, §2

DPP-4 [3] = target: T4, DPP-4 (Homo sapiens, UniProt P27487); assay: Protease assay with DPP-4 (HPLC); type: in vitro ADME; details: DPP-4 (isolated protease); TBS pH 8.0, 37° C.
T4 construct: purchased EMD Biosciences 317640

DPP-4 [4] = assay: DPP-4 (EMD Biosciences; catalog #317640) in TBS buffer, pH 8.0; details: 37° C., up to seven (7) days
neprilysin (NEP 24.11) = details: cited from earlier work
[5] = system: dipeptidyl peptidase-4 (DPP-4); details: cited from earlier work

T1 sequence (P08473 whole entry): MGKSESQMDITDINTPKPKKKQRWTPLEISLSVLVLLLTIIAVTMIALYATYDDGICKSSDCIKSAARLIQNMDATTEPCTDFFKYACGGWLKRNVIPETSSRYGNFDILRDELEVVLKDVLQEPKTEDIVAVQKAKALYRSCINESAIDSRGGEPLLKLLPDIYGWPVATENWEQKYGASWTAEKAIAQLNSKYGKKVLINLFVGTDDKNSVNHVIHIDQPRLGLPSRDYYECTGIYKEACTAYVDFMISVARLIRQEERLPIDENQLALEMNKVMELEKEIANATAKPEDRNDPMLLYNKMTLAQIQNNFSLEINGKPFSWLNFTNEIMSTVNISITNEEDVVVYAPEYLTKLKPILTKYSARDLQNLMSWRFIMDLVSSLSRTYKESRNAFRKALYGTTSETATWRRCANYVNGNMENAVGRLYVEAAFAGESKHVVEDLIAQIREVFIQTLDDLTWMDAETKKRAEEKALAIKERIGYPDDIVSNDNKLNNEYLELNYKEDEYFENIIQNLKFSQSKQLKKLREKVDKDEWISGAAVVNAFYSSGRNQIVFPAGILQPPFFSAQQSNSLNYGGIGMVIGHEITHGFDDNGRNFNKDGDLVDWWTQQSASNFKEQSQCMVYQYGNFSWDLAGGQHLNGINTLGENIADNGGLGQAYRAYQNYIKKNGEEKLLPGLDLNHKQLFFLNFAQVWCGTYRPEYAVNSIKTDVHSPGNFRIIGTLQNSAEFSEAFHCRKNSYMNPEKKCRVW
T4 sequence (P27487 whole entry): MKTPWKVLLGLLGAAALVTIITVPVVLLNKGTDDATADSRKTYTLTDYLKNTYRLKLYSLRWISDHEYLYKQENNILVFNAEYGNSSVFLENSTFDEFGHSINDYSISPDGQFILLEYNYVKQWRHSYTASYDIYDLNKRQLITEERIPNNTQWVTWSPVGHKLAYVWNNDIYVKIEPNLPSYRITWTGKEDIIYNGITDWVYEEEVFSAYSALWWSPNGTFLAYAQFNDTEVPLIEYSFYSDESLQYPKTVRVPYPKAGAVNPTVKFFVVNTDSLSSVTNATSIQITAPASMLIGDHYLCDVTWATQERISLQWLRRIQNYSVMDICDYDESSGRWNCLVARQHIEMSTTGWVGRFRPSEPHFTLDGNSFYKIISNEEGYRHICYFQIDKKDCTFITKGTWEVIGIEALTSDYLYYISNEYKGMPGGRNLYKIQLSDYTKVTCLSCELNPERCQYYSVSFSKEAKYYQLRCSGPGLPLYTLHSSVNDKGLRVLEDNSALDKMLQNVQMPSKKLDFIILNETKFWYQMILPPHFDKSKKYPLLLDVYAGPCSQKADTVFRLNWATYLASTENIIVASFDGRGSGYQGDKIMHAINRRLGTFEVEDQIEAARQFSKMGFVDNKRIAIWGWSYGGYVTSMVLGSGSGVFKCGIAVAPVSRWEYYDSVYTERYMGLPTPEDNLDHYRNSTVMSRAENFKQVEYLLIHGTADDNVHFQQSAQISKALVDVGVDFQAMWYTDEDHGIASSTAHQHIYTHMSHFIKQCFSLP

number of major cleavage sites, neprilysin (neprilysin; MALDI-TOF-MS): five
half-life at 40 μM (neprilysin; neprilysin (isolated protease), pH 8, 40 μM peptide, TBS pH 8.0, room temperature, read-out: half-life (t1/2) with neprilysin (converted)): 19.8 min
remaining at 1 min, 40 μM (chymotrypsin [1]): < 25%
number of major cleavage sites, chymotrypsin (chymotrypsin [2]; MALDI-TOF-MS): three
half-life at 40 μM (chymotrypsin [2]; chymotrypsin (isolated protease), 40 μM peptide, TBS pH 8.0, room temperature, read-out: t1/2 with chymotrypsin (converted)): 0.317 min
half-life at 40 μM (DPP-4 [3]): 13.5 min
Compound: CC[C@H](C)[C@H](NC(=O)[C@H](Cc1ccccc1)NC(=O)[C@H](CCC(=O)O)NC(=O)[C@H](CCCCN)NC(=O)[C@H](C)NC(=O)[C@H](C)NC(=O)[C@H](CCC(N)=O)NC(=O)CNC(=O)[C@H](CCC(=O)O)NC(=O)[C@H](CC(C)C)NC(=O)[C@H](Cc1ccc(O)cc1)NC(=O)[C@H](CO)NC(=O)[C@H](CO)NC(=O)[C@@H](NC(=O)[C@H](CC(=O)O)NC(=O)[C@H](CO)NC(=O)[C@@H](NC(=O)[C@H](Cc1ccccc1)NC(=O)[C@@H](NC(=O)CNC(=O)[C@H](CCC(=O)O)NC(=O)[C@H](C)NC(=O)[C@@H](N)Cc1c[nH]cn1)[C@@H](C)O)[C@@H](C)O)C(C)C)C(=O)N[C@@H](C)C(=O)N[C@@H](Cc1c[nH]c2ccccc12)C(=O)N[C@@H](CC(C)C)C(=O)N[C@H](C(=O)N[C@@H](CCCCN)C(=O)NCC(=O)N[C@@H](CCCNC(=N)N)C(=O)NCC(N)=O)C(C)C [SEQ. ID. NO: 1]
Average Blood Glucose Level (C57BL/6J mice; 1 mg/kg i.p., time 0.0 min): 81.8 mg/dL
Average Blood Glucose Level (C57BL/6J mice; 1 mg/kg i.p., time 30.0 min): 132.8 mg/dL
Average Blood Glucose Level (C57BL/6J mice; 1 mg/kg i.p., time 60.0 min): 99.3 mg/dL
Average Blood Glucose Level (C57BL/6J mice; 1 mg/kg i.p., time 90.0 min): 74.8 mg/dL
Average Blood Glucose Level (C57BL/6J mice; 1 mg/kg i.p., time 120.0 min): 86.0 mg/dL
Average Blood Glucose Level (C57BL/6J mice; 1 mg/kg i.p., time −60.0 min (peptide injection)): 108.0 mg/dL
Average Blood Glucose Level at 30 min (column head AUC) (C57BL/6J mice; 1 mg/kg i.p., Table 7, 30 min after second glucose injection given five hours after peptide): 250.5
glucose-lowering effect in GTT repeated 5 hours after agonist administration (in words) (C57BL/6J mice; 1 mg/kg, 30 min after the second glucose challenge): no significant difference

Compound: H-HAEGTFTSDASXYLEXQAAXEFIXWLVZGRG-NH2
not cleaved (DPP-4 [4]): no cleavage was detected during seven (7) days

Compound: H-HAEGTFTSDVSSYLEGQAAKEFIAWLVKGRG-NH2
cleaved bond (neprilysin (NEP 24.11)): Asp15-Val16; also recorded: cleaves after Ser18; also recorded: cleaves after Tyr19; also recorded: cleaves after Glu27; also recorded: cleaves after Phe28; also recorded: cleaves after Trp31
cleaved bond [5]: cleaves after Ala8
